Data taken from EPA's CvTdb concentration-time database.
Values joined by “and” are separate entries in the source; they are usually repeats but may differ in a detail not shown here. Identical values can stand only once.

Columns and labels:
rat [1] = assay: concentration in expired air after dosing; conditions: dosed: 1,1,1,2-tetrachloroethane, 352 ppm, inhalation, duration: 6 hr
rat [2] = assay: concentration in blood after dosing; conditions: male
Rat [3] = assay: concentration in blood after dosing; negative times count back from the end of exposure; conditions: dosed: 1,2-dichloroethane, inhalation, duration: 6 hr, Male, F344
rat [4] = assay: as above; conditions: dosed: 1,2-dichloroethane, inhalation, duration: 6 hr, male
rat [5] = assay: concentration in urine after dosing; conditions: male
rat [6] = assay: concentration in feces after dosing; conditions: male
rat [7] = assay: concentration in plasma after dosing; conditions: dosed: benzo[a]pyrene, inhalation, duration: 4 hr, F344
rat [8] = assay: concentration in lung after dosing; conditions: inhalation
rat [9] = assay: concentration in spleen after dosing; conditions: dosed: [3H]benzo(a)pyrene, 1 ug/kg, inhalation, male, Sprague Dawley, radiolabel
rat [10] = assay: concentration in stomach after dosing; conditions: dosed: [3H]benzo(a)pyrene, 1 ug/kg, inhalation, male, Sprague Dawley, radiolabel
rat [11] = assay: concentration in body after dosing; conditions: dosed: [3H]benzo(a)pyrene, 1 ug/kg, inhalation, male, Sprague Dawley, radiolabel
rat [12] = assay: concentration in testes after dosing; conditions: dosed: [3H]benzo(a)pyrene, 1 ug/kg, inhalation, male, Sprague Dawley, radiolabel
rat [13] = assay: concentration in kidney after dosing; conditions: dosed: [3H]benzo(a)pyrene, 1 ug/kg, inhalation, male, Sprague Dawley, radiolabel
rat [14] = assay: concentration in liver after dosing; conditions: dosed: [3H]benzo(a)pyrene, 1 ug/kg, inhalation, male, Sprague Dawley, radiolabel
rat [15] = assay: concentration in intestines after dosing; conditions: dosed: [3H]benzo(a)pyrene, 1 ug/kg, inhalation, male, Sprague Dawley, radiolabel
rat [16] = assay: concentration in heart/thymus after dosing; conditions: dosed: [3H]benzo(a)pyrene, 1 ug/kg, inhalation, male, Sprague Dawley, radiolabel

ClCC(Cl)(Cl)Cl [1,1,1,2-tetrachloroethane]
rat [1]
Conditions	concentration in expired air [ng/mL]
0.2586 h	89.8
0.5066 h	97.9
0.7323 h	90.1
0.7758 h	98.6
1.001 h	79.1
1.012 h	83.8
1.506 h	67.5
1.507 h	72.8
2.766 h	65.7
3.982 h	62.9
4.003 h	52
4.477 h	59.7
5.5 h	58.8
6.5 h	46.7
6.511 h	41.4
6.995 h	40.1
7.007 h	49.3
7.986 h	39.2
7.995 h	32.7
8.987 h	36.6
8.997 h	31
9.986 h	27
9.987 h	29.5

ClCCCl [1,2-Dichloroethane]
rat [2], dosed: 1,2-Dichloroethane, 100 mg/kg, oral, Wistar
Conditions	concentration in blood [ng/mL]
0.1036 h	52400
0.1179 h	13300
0.132 h	43800
0.1651 h	12600
0.1867 h	44200
0.1921 h	12300
0.2321 h	11400
0.2347 h	43700
0.2763 h	39500
0.2876 h	11900
0.3244 h	38100
0.3422 h	11800
0.3792 h	37800
0.3969 h	11700
0.4271 h	38800
0.4374 h	11200
0.5094 h	37200
0.5261 h	10800
0.7703 h	31800
0.7778 h	9360
1.018 h	25700
1.028 h	6280
1.518 h	20100
1.525 h	4200
2.019 h	14600
2.026 h	4360
2.519 h	10500
2.525 h	3610
3.016 h	1910
3.027 h	7170
3.517 h	2720
3.527 h	4850
4.013 h	3030
4.015 h	1450
4.508 h	862
4.52 h	1720
5.001 h	703
5.014 h	1210
145 s	5240
247 s	58200
291 s	10900

ClCCCl [1,2-dichloroethane]
concentration in blood [ng/mL], Rat [3]
Conditions	50 ppm	250 ppm
0.1443 h	815	24500
0.2313 h	664	–
0.2438 h	–	19700
0.3184 h	495	–
0.3308 h	–	15800
0.4925 h	239	12300
0.7413 h	131	8050
0.99 h	–	5340
1.488 h	–	1940
1.973 h	–	664
2.993 h	–	124
295 s	962	26800

Conditions	concentration in blood
Rat [3], -3.002 h, 50 ppm, during exposure	1340 ng/mL
Rat [3], -3.015 h, 250 ppm, during exposure	29300 ng/mL
Rat [3], -4.01 h, 50 ppm, during exposure	1340 ng/mL
Rat [3], -4.01 h, 250 ppm, during exposure	23600 ng/mL
Rat [3], -5.005 h, 50 ppm, during exposure	926 ng/mL
Rat [3], -5.005 h, 250 ppm, during exposure	11700 ng/mL
Rat [3], -5.515 h, 50 ppm, during exposure	476 ng/mL
Rat [3], -5.515 h, 250 ppm, during exposure	5840 ng/mL and 6640 ng/mL
Rat [3], -18 s, 50 ppm, during exposure	1360 ng/mL
Rat [3], -18 s, 250 ppm, during exposure	30800 ng/mL
rat [4], 0 h, 200 ppm, Fischer-344	2940 ng/mL
rat [4], 0.1607 h, 150 ppm, Osborne-Mendel	3870 ng/mL
rat [4], 0.2398 h, 150 ppm, Osborne-Mendel	2830 ng/mL
rat [4], 0.25 h, 200 ppm, Fischer-344	851 ng/mL
rat [4], 0.3387 h, 150 ppm, Osborne-Mendel	2010 ng/mL
rat [4], 0.4969 h, 150 ppm, Osborne-Mendel	1320 ng/mL
rat [4], 0.665 h, 150 ppm, Osborne-Mendel	670 ng/mL
rat [4], 0.9913 h, 150 ppm, Osborne-Mendel	708 ng/mL
rat [4], 1.328 h, 150 ppm, Osborne-Mendel	279 ng/mL
rat [4], 258 s, 150 ppm, Osborne-Mendel	5010 ng/mL
rat [4], -3 h, 200 ppm, Fischer-344, during exposure	3170 ng/mL
rat [4], -5 h, 200 ppm, Fischer-344, during exposure	1920 ng/mL
rat [4], -5.5 h, 200 ppm, Fischer-344, during exposure	1320 ng/mL
rat [4], -5.75 h, 200 ppm, Fischer-344, during exposure	768 ng/mL

rat [4], 150 ppm, Osborne-Mendel, during exposure
Conditions	concentration in blood [ng/mL]
-27 s	9390
-5.001 h	5160
-3.34 h	8640
-2.005 h	8290

Oc1ccc2ccc3c4ccccc4cc4ccc1c2c43 [3-OH-BP]
dosed: benzo[a]pyrene, 200 mg/kg, iv, LIO
Conditions	concentration in feces, rat [6] [µg/kg]	concentration in urine, rat [5] [µg/kg]
24 h	6.9	3.9
48 h	9.9	5.4
72 h	8.9	6.2
96 h	9.6	5
120 h	7.7	4.2
144 h	9.1	2.6
168 h	8.4	2.6
192 h	4	2.5
216 h	3.3	2.8
240 h	3.2	2.7
264 h	3.1	2.5
288 h	2.5	2.6
312 h	2.5	2.5
336 h	2.3	2.2
360 h	2.3	2.5

Oc1ccc2ccc3c4ccccc4cc4ccc1c2c43 [3-hydroxy benzo[a]pyrene]
concentration in plasma [ng/mL], rat [7]
Conditions	0.1 mg/m^3, female	0.1 mg/m^3, male	1 mg/m^3, female	1 mg/m^3, male	2.5 mg/m^3, female	2.5 mg/m^3, male
0.5 h	0.174	0.301	0.399	0.606	5.8	5.6
1 h	0.689	0.905	7	8.58	34.5	33.1
2 h	0.344	0.305	0.356	0.97	6.62	7.14
4 h	0.0192	0.0316	0.00793	0.00272	0.324	0.363

concentration in lung [ng/mL], rat [8], dosed: benzo[a]pyrene, F344
Conditions	0.05 h	1 h	2 h	4 h
0.1 mg/m^3, duration: 4 hr, female	0.389	3.61	0.814	0.209
0.1 mg/m^3, duration: 4 hr, male	0.29	2.87	1.21	0.154
1 mg/m^3, duration: 4 hr, female	11.8	15.5	14.6	1.6
1 mg/m^3, duration: 4 hr, male	5.1	16.6	5.12	3
2.5 mg/m^3, duration: 4 hr, female	23.9	52.2	12.3	1.49
2.5 mg/m^3, duration: 4 hr, male	21.7	48.1	8.15	3.18

[3H][3H] [[3H] radioactivity]
Conditions	concentration in body, rat [11] [µg/kg]	concentration in heart/thymus, rat [16] [µg/kg]	concentration in intestines, rat [15] [µg/kg]	concentration in kidney, rat [13] [µg/kg]	concentration in liver, rat [14] [µg/kg]	concentration in spleen, rat [9] [µg/kg]	concentration in stomach, rat [10] [µg/kg]	concentration in testes, rat [12] [µg/kg]
0.25 h	0.23	0.008	0.049	0.019	0.196	0.004	0.007	0.007
0.5 h	0.263	0.005	0.052	0.014	0.186	0.002	0.012	0.006
1 h	0.271	0.005	0.099	0.022	0.158	0.003	0.046	0.011
1.5 h	0.25	0.005	0.126	0.024	0.171	0.002	0.037	0.013
2 h	0.223	0.006	0.11	0.02	0.132	0.002	0.069	0.011
3 h	0.214	0.005	0.123	0.018	0.083	0.002	0.05	0.008
4 h	0.21	0.004	0.133	0.017	0.067	0.001	0.04	0.009
5 min	0.144	0.009	0.019	0.011	0.125	0.005	0.003	0.004
6 h	0.215	0.004	0.149	0.02	0.046	0.002	0.058	0.008
10 min	0.264	0.016	0.033	0.019	0.208	0.003	0.007	0.005

dosed: [3H]benzo(a)pyrene, 1 ug/kg, Sprague Dawley, radiolabel
Conditions	concentration in blood [µg/kg]	concentration in feces [µg/kg]	concentration in lung [µg/kg]	concentration in urine [µg/kg]
rat [2], 0.25 h, inhalation	0.038	–	–	–
rat [2], 0.5 h, inhalation	0.016	–	–	–
rat [2], 1 h, inhalation	0.016	–	–	–
rat [2], 1.5 h, inhalation	0.021	–	–	–
rat [2], 2 h, inhalation	0.019	–	–	–
rat [2], 3 h, inhalation	0.011	–	–	–
rat [2], 4 h, inhalation	0.008	–	–	–
rat [2], 5 min, inhalation	0.039	–	–	–
rat [2], 6 h, inhalation	0.017	–	–	–
rat [2], 10 min, inhalation	0.03	–	–	–
rat [5], 0.25 h, inhalation	–	–	–	0.002
rat [5], 0.5 h, inhalation	–	–	–	0.001
rat [5], 1 h, inhalation	–	–	–	0.003
rat [5], 1.5 h, inhalation	–	–	–	0.008
rat [5], 2 h, inhalation	–	–	–	0.011
rat [5], 3 h, inhalation	–	–	–	0.012
rat [5], 4 h, inhalation	–	–	–	0.016
rat [5], 6 h, inhalation	–	–	–	0.022
rat [5], 10 min, inhalation	–	–	–	0.0001
rat [6], 0.25 h, inhalation	–	0.029	–	–
rat [6], 0.5 h, inhalation	–	0.033	–	–
rat [6], 1 h, inhalation	–	0.143	–	–
rat [6], 1.5 h, inhalation	–	0.171	–	–
rat [6], 2 h, inhalation	–	0.168	–	–
rat [6], 3 h, inhalation	–	0.256	–	–
rat [6], 4 h, inhalation	–	0.301	–	–
rat [6], 5 min, inhalation	–	0.005	–	–
rat [6], 6 h, inhalation	–	0.447	–	–
rat [6], 10 min, inhalation	–	0.008	–	–
rat [8], 0.25 h, male	–	–	0.322	–
rat [8], 0.5 h, male	–	–	0.204	–
rat [8], 1 h, male	–	–	0.154	–
rat [8], 1.5 h, male	–	–	0.113	–
rat [8], 2 h, male	–	–	0.11	–
rat [8], 3 h, male	–	–	0.068	–
rat [8], 4 h, male	–	–	0.035	–
rat [8], 5 min, male	–	–	0.595	–
rat [8], 6 h, male	–	–	0.052	–
rat [8], 10 min, male	–	–	0.419	–
